The values that follow are results of earlier work, collected in US20010039006A1, “Toxicity typing using embryoid bodies” (priority 1998, published 2001).

Like-named read-outs stand apart in the source and are kept apart here.

The conditions of data set [1]: for liver toxicity: known toxicity of the marketed drug.
The conditions of data set [2]: human, in vivo.
For data set [3] the following is noted: in vivo.
For data set [4] the following is noted: human, in vivo. The source holds these as a separate data set.

Take `CC(=O)Nc1ccc(O)cc1` [acetominophen]: the “TOXICITIES LIVER” value in data set [1] (human, in vivo) is recorded as “+”.

For `c1ccc2c(c1)cc1ccc3cccc4ccc2c1c34` [benzo(a)pyrene], the “TOXICITIES CV” value in data set [2] was “+”.

`N.N.O=C([O-])C1(C(=O)[O-])CCC1.[Pt+2]` [carboplatin]: the “TOXICITIES GI” value in data set [3] was “+”.

For the compound `CCOC(=O)C(C)(C)Oc1ccc(Cl)cc1` [clofibrate], the “TOXICITIES LIVER” value in data set [1] (Table 1) is “ntc”.

For `N=C(N)NCCCCCCC(=O)NC(O)C(=O)NCCCCNCCCN` (stereo not drawn) [deoxyspergualin], the “TOXICITIES CV” value in data set [2] is “+”.

`CCC(=O)O[C@H]1[C@H](O[C@@H]2[C@@H](C)[C@H](O[C@H]3C[C@@](C)(OC)[C@@H](O)[C@H](C)O3)[C@@H](C)C(=O)O[C@H](CC)[C@@](C)(O)[C@H](O)[C@@H](C)C(=O)[C@H](C)C[C@@]2(C)O)O[C@H](C)C[C@@H]1N(C)C` [erythromycin estolate]: in data set [1], the “liver toxicity” value is recorded as “known liver toxicity”.

For `COc1nc(C(Cl)(Cl)Cl)c(Cl)c(OC)c1Cl` [penclomedine], the “TOXICITIES CNS” value in data set [4] is on record as “+”.

Take `CN(CCOc1ccc(CC2SC(=O)NC2=O)cc1)c1ccccn1` (stereo not drawn) [rosiglitazone]: the “TOXICITIES LIVER” value in data set [1] (Table 1) is given as “ntc”.

As to `Cc1c(C)c2c(c(C)c1O)CCC(C)(COc1ccc(CC3SC(=O)NC3=O)cc1)O2` (stereo not drawn) [troglitazone], the “liver toxicity” value in data set [1] is given as “rare but severe liver toxicity”.
